Columns and labels:
HT29-NIS cells = assay: 125I iodide uptake in HT29-NIS cells; assay type: cell-based, human; conditions: one hour incubation with 125I, Iomeron 100 μL corresponding to 70 mg of iomeprol
Procedure: (§1) FIG. 2: Effect of Iomeron on iodide uptake of established cell lines expressing NIS. HT29-NIS (A) or PCCL3 (B) cells were incubated for one hour with ^125I in the presence of an equal volume of either saline, Iomeron (100 μL corresponding to 70 mg of iomeprol), NaI or perchlorate. Cells were then rapidly washed with saline buffer and lysed. Aliquots of lysates were counted in a y counter. The results are expressed as percentage of uptake in the control condition. The data presented are the mean±SEM of triplicates and are representative of three independent experiments. n.s: non statistically significant.
(§2) The human colorectal cancer cell line HT-29 (HTB-38, ATCC) was transfected with pcDNA3.1-mNIS (murine NIS) (Perron et al., 2001) using the FuGENE 6 reagent (Roche) according to the manufacturer's instructions. Stable clones were selected by addition of 1 mg/mL geneticin (G418) to the medium 3 days after transfection. One clone with high functional expression of NIS was selected (Richard-Fiardo et al., 2012). The rat follicular thyroid cell line PCCL3 was obtained from Dr. A. De La Vieja (Madrid, Spain) and cultured as previously described (Leoni et al., 2011). Measurement of in vitro iodide uptake was performed as previously described (Groot-Wassink et al., 2002).
(§3) We next examined whether iomeprol and its contaminating free iodide could affect iodide uptake in NIS-expressing cell lines. HT29-NIS (a human colorectal carcinoma cell line expressing NIS) (FIG. 2A) or PCCL3 (a rat follicular thyroid cell line) (FIG. 2B) cells were incubated with ^125I in the presence of either saline buffer, Iomeron, NaI, or perchlorate (NaClO4). After one hour, cells were washed and cellular ^125I content was determined.

PCCL3 cells = assay: 125I iodide uptake in PCCL3 cells; assay type: cell-based, rat; conditions: one hour incubation with 125I, Iomeron 100 μL corresponding to 70 mg of iomeprol
Procedure: as §1, §2, §3

mouse thyroid = assay: 99m-pertechnetate uptake by the mouse thyroid (microSPECT/CT); assay type: in vivo
Procedure: (§4) FIG. 3: Effect of Iomeron on the uptake of ^99m-pertechnetate by the mouse thyroid and salivary glands. SPECT/CT imaging of mice administered 20 MBq ^99m-pertechnetate was performed (day 0). At the end of the scan, Iomeron was administered intravenously. One, four, eight, twelve and eighteen days later, animals were injected with 20 MBq ^99m-pertechnetate and new scans were performed. The data presented represent the percentage of radiotracer injected taken up by the thyroid (A) and salivary glands (B). (n=3 per condition). ***p<0.001; n.s: non statistically significant.
FIG. 5: Effect of KI on the uptake of ^99m-pertechnetate by the mouse thyroid and salivary glands. SPECT/CT imaging of mice administered 20 MBq ^99m-pertechnetate was performed (day 0). Animals were injected intraperitoneally with KI (9 mg in 180 μL) and scanned 30 minutes later. Twenty-four hours later, animals were injected with 20 MBq ^99m-pertechnetate and new scans were performed. The data presented represent the percentage of radiotracer injected taken up by the thyroid (A) and salivary glands (B). (n=3 per condition). *p<0.05; ***p<0.001.
FIG. 7: Evaluation of the effect of different modes of administration of Iomeron on the uptake of ^99m-pertechnetate by the thyroid. SPECT/CT imaging of mice administered 20 MBq ^99m-pertechnetate was performed (day 0). At the end of the scan, intravenous, sublingual, enteral, and intraperitoneal administrations of Iomeron were performed. Four days later, animals were injected with 20 MBq ^99m-pertechnetate and new scans were performed. The data presented represent the percentage of radiotracer injected taken up by the thyroid (A) and salivary glands (B). (n=2 per condition). ***p<0.001.
FIG. 9: Effect of Telebrix, Optiray and Omnipaque on the uptake of ^99mpertechnetate by the mouse thyroid. SPECT/CT imaging of mice administered 20 MBq ^99mpertechnetate was performed (day 0). At the end of the scan, mice received a sublingual administration […] of Telebrix or Optiray, or Omnipaque. Two days later, animals were injected with 20 MBq ^99mpertechnetate and new scans were performed. The data presented represent the percentage of radiotracer injected taken up by the thyroid. (n=3 per condition). ***p<0.001; n.s: non statistically significant. % IA: percentage of the injected activity.
Eight-week-old female C57B/6J mice were obtained from Janvier (Le Genest Saint Isle, France). Animal housing and procedures were conducted according to French Agriculture Ministry guidelines and were approved by the local ethics committee (Ciepal NCE/2014-211).
Intravenous and intraperitoneal administration was performed by injecting 100 μL Iomeron diluted 50/50 (vol/vol) with phosphate-buffered saline (corresponding to 18 mg iomeprol). Enteral administration was performed by gavage of 100 μL Iomeron diluted 50/50 (vol/vol) with phosphate-buffered saline (corresponding to 18 mg iomeprol). Sublingual administration was performed on anesthetized mice by five sublingual depositions of 5 μL Iomeron, with a delay of 10 minutes between two administrations. This procedure led to the administration of […] iomeprol.
^99mTc pertechnetate (^99mTcO4^−) was obtained from a freshly eluted ^99Mo/^99mTc generator. Animals were administered intraperitoneally with activities of 20 MBq ^99mTcO4^−. Thyroid and salivary gland tracer uptake was measured at different times using a dedicated microSPECT/CT scanner (eXplore speCZT CT120, GE) under gas anesthesia (air and 1-2% isoflurane) in an air-warmed imaging chamber (Minerve, Esternay, France) to maintain body temperature at 37° C. The SPECT scanner uses a stationary full ring of CZT detectors and a rotating 7-pinhole (1 mm opening) collimator. A total of 350 projections were acquired over 360° in 8 minutes. Images were reconstructed using the manufacturer's 3D-OSEM algorithm (5 subsets and 11 iterations), which incorporates the system's collimator-detector response function and scatter correction. […]

mouse salivary glands = assay: 99m-pertechnetate uptake by the mouse salivary glands (microSPECT/CT); assay type: in vivo
Procedure: as §4
FIG. 5: Effect of KI on the uptake of ^99m-pertechnetate by the mouse thyroid and salivary glands. […]
^99mTc pertechnetate (^99mTcO4^−) was obtained from a freshly eluted ^99Mo/^99mTc generator. […] Thyroid and salivary gland tracer uptake was measured at different times using a dedicated microSPECT/CT scanner (eXplore speCZT CT120, GE) under gas anesthesia (air and 1-2% isoflurane) in an air-warmed imaging chamber (Minerve, Esternay, France) to maintain body temperature at 37° C. […] Reconstructed images were analyzed and quantified using AMIDE software (Loening and Gambhir, 2003). Tracer activities in the various relevant organs were calculated. […] Uptakes were expressed as percentages of the injected dose (% ID) after decay correction (Cambien et al., 2014).

human thyroid = assay: 99mTcO4- scintigraphy of the human thyroid; assay type: in vivo; conditions: patient, intravenous injection two weeks before scintigraphy
Procedure: (§5) FIG. 4: Effect of Iomeron on the uptake of ^99m-pertechnetate by the human thyroid and salivary glands. Scintigraphies of a naïve patient (A) or a patient who has been administered with Iomeron two weeks before the scintigraphy. SG: salivary glands; T: thyroid; R: right; L: left.
(§6) A “naïve” patient and a patient who had received an intravenous injection of Iomeron 350 two weeks before scintigraphy were involved. On the day of the scintigraphy, patients were injected intravenously with an activity of 1 MBq/kg and 600 s scans was performed 15 min later.

human salivary glands = assay: 99mTcO4- scintigraphy of the human salivary glands; assay type: in vivo; conditions: patient, intravenous injection two weeks before scintigraphy
Procedure: as §5, §6

NIS [1] = assay: NIS expression in mouse thyroid glands (immunohistochemistry, Western blot); assay type: in vivo; conditions: four days after intravenous injection
Procedure: (§7) FIG. 6: Analysis of NIS expression in the thyroid and salivary glands in response to Iomeron. Saline buffer (A, C) or Iomeron (B, D) were administered intravenously. Four days later, animals were culled and NIS expression in the thyroid glands (A, B) and salivary glands (C, D) were analyzed by immunohistochemistry (n=3 per group). Thyroids and salivary glands were also processed for Western blot analysis of NIS and β-actin expression (n=2 per group).
(§8) Thyroid membrane proteins were subjected to SDS-PAGE electrophoresis as previously described (Cambien et al., 2014). Western blotting was performed with antibody 25 anti-mouse NIS, an affinity-purified rabbit immunoreactive serum fraction, or with an anti-β-actin antibody (Sigma).
(§9) After culling the animals, thyroids and salivary glands were dissected, paraffin embedded, and cut into 4-μm-thick sections. The paraffin was then removed and the sections were rehydrated and subjected to an antigen retrieval treatment with a solution of citrate buffer, pH 6, using an automate (PT Link, Dako). Immunostaining was performed following a standard protocol (Dako EnVision™ FLEX using an automated immunostainer, Autostainer, Dako). Endogenous peroxide was blocked using the EnVision™ FLEX Peroxidase-Blocking Reagent. […]

NIS [2] = assay: NIS expression in mouse salivary glands (immunohistochemistry, Western blot); assay type: in vivo; conditions: four days after intravenous injection
Procedure: as §7, §8, §9

thyroid = conditions: KI tablets, prevention of 131-I entry into the thyroid; cited from earlier work
[3] = after intravenous administration, scans on days 1, 4, 8, 12, 18

## CN(C(=O)CO)c1c(I)c(C(=O)NCC(O)CO)c(I)c(C(=O)NCC(O)CO)c1I (stereo not drawn) [Iomeron, iomeprol]
HT29-NIS cells
  iodide uptake (125I): failed to affect this uptake significantly
PCCL3 cells
  iodide uptake (125I): failed to affect this uptake significantly
Mouse thyroid; 24 hours after intravenous administration
  radiotracer uptake by the thyroid: dramatic reduction
Mouse thyroid; [3]
  duration of low thyroid uptake capacity: remained low for eight days
  recovery of thyroid uptake capacity: recovery was observed from day 12
Mouse thyroid; enteral administration (gavage, 18 mg iomeprol), four days later
  radiotracer uptake by the thyroid: neither enteral nor intraperitoneal administration affected radiotracer uptake
Mouse thyroid; intraperitoneal administration (18 mg iomeprol), four days later
  radiotracer uptake by the thyroid: neither enteral nor intraperitoneal administration affected radiotracer uptake
Mouse thyroid; intravenous administration (18 mg iomeprol), four days later
  radiotracer uptake by the thyroid: marked reduction
Mouse thyroid; sublingual administration (9 mg iomeprol), four days later
  radiotracer uptake by the thyroid: marked reduction
Mouse salivary glands; after intravenous administration, same animals
  uptake by the salivary glands: failed to affect iodide uptake
Mouse salivary glands; intravenous, sublingual, enteral or intraperitoneal administration, four days later
  uptake to the salivary glands: not affected in any condition
Human thyroid
  pertechnetate uptake in the thyroid: lack of fixation in the thyroid region
Human salivary glands
  pertechnetate uptake in the salivary glands: radiotracer uptake in the salivary glands
NIS [1]
  NIS expression in thyroids, immunohistological analysis: hardly detectable
NIS [1]; compared with controls
  NIS expression in the thyroid glands, western blot: dramatic decrease
NIS [2]
  NIS expression in ductal cells of the salivary glands, immunohistological analysis: detectable
NIS [2]; compared with controls
  NIS expression in the salivary glands, western blot: no significant difference

## [I-].[K+] [KI, potassium iodide]
Mouse thyroid; 30 minutes after intraperitoneal injection (9 mg in 180 μL)
  ability of the thyroid to take up pertechnetate: reduced
Mouse thyroid; 24 hours after intraperitoneal injection (9 mg in 180 μL)
  ability of the thyroid to take up pertechnetate: recovered
thyroid
  duration of the protective effect: 24 h

## [I-].[Na+] [NaI]
HT29-NIS cells
  iodide uptake (125I): inhibited iodide uptake
PCCL3 cells
  iodide uptake (125I): inhibited iodide uptake

## [O-][Cl+3]([O-])([O-])O [perchlorate]
HT29-NIS cells
  iodide uptake (125I): inhibited iodide uptake
PCCL3 cells
  iodide uptake (125I): inhibited iodide uptake

— patent publication US20200261497A1, “Iodinated Contract Medium for Use as a Medicament for Thyroid Radioprotection” (priority 2017, published 2020)
